The values below are quoted from earlier work in patent US20020020828A1, “Non-toxic ethylene glycol-based antifreeze/heat transfer fluid concentrate and antifreeze/heat transfer fluid” (priority 2000, published 2002).

The subject of this data set is humans. To be noted: ingestion.

The structures appear in SMILES notation.

Take `OCCO` [EG, 1,2-ethandiol]: the “toxic level in humans (reported as low as)” value is 1,570 mg/kg.
